Test results from ChEMBL document CHEMBL3885881, “DrugMatrix”.

Species: Rattus norvegicus
Assay: DrugMatrix - Regimen: Daily Repeat
Format: toxicity, organism-based, Sprague-Dawley
Design: regimen Daily Repeat, gender Male, age 6-8 weeks
Conditions: in vivo, po, route oral GAVAGE, […]; for ABSOLUTE BASOPHIL / ABSOLUTE EOSINOPHIL / ABSOLUTE LYMPHOCYTE / ABSOLUTE MONOCYTE / ABSOLUTE SEGMENTED NEUTROPHIL / BASOPHIL / EOSINOPHIL / ERYTHROCYTE COUNT / HEMATOCRIT / HEMOGLOBIN / LEUKOCYTE COUNT / LYMPHOCYTE / MEAN CORPUSCULAR HEMOGLOBIN / MEAN CORPUSCULAR HEMOGLOBIN CONCENTRATION / MEAN CORPUSCULAR VOLUME / MONOCYTE / NEUTROPHIL / NUCLEATED RED BLOOD CELLS / PLATELET COUNT: tissue Blood; for ALANINE AMINOTRANSFERASE / ALBUMIN / ALKALINE PHOSPHATASE / ASPARTATE AMINOTRANSFERASE / BLOOD UREA NITROGEN / CARBON DIOXIDE / CHLORIDE / CHOLESTEROL / CREATINE PHOSPHOKINASE / CREATININE / GLUCOSE / LACTATE DEHYDROGENASE / LIPASE / PHOSPHORUS / POTASSIUM / SODIUM / TOTAL BILIRUBIN / TOTAL PROTEIN / URIC ACID: tissue Plasma
[1] = 0 mg/kg, 72 h, dose level Control, time 3 day
[2] = 0 mg/kg, 120 h, dose level Control, time 5 day
[3] = 1 mg/kg, 72 h, dose level Low, time 3 day

C[C@H]1O[C@@H](O[C@H]2[C@@H](O)C[C@H](O[C@H]3[C@@H](O)C[C@H](O[C@H]4CC[C@@]5(C)[C@H](CC[C@@H]6[C@@H]5CC[C@]5(C)[C@@H](C7=CC(=O)OC7)CC[C@]65O)C4)O[C@@H]3C)O[C@@H]2C)C[C@H](O)[C@@H]1O [DIGITOXIN]
ABSOLUTE BASOPHIL [1]: 0 CELLS/uL | ABSOLUTE EOSINOPHIL [1]: 13.67 CELLS/uL | ABSOLUTE LYMPHOCYTE [1]: 10069.5 CELLS/uL | ABSOLUTE MONOCYTE [1]: 50 CELLS/uL | ABSOLUTE SEGMENTED NEUTROPHIL [1]: 516.83 CELLS/uL | BASOPHIL [1]: 0% | EOSINOPHIL [1]: 0.17% | ERYTHROCYTE COUNT [1]: 5.44 x10E6/uL | HEMATOCRIT [1]: 33.88% | HEMOGLOBIN [1]: 13.23 G/DL | LEUKOCYTE COUNT [1]: 10.65 x10E3/uL | LYMPHOCYTE [1]: 94.67% | MEAN CORPUSCULAR HEMOGLOBIN [1]: 24.37 pg | MEAN CORPUSCULAR HEMOGLOBIN CONCENTRATION [1]: 39.05 G/DL | MEAN CORPUSCULAR VOLUME [1]: 62.38 fL | MONOCYTE [1]: 0.67% | NEUTROPHIL [1]: 4.5% | NUCLEATED RED BLOOD CELLS [1]: 0.33 /100WBC | PLATELET COUNT [1]: 414.5 x10E3/uL | ALANINE AMINOTRANSFERASE [1]: 72 u/L | ALBUMIN [1]: 3.75 G/DL | ALKALINE PHOSPHATASE [1]: 375 u/L | ASPARTATE AMINOTRANSFERASE [1]: 87.5 u/L | BLOOD UREA NITROGEN [1]: 14 mg/dL | CARBON DIOXIDE [1]: 27.5 mmol/L | CHLORIDE [1]: 95.83 MEQ/L | CHOLESTEROL [1]: 68.5 mg/dL | CREATINE PHOSPHOKINASE [1]: 284.33 u/L | CREATININE [1]: 0.16 mg/dL | GLUCOSE [1]: 156.67 mg/dL | LACTATE DEHYDROGENASE [1]: 101.83 u/L | LIPASE [1]: 9.67 u/L | PHOSPHORUS [1]: 10.33 mg/dL | POTASSIUM [1]: 5.22 MEQ/L | SODIUM [1]: 137.67 MEQ/L | TOTAL BILIRUBIN [1]: 0.13 mg/dL | TOTAL PROTEIN [1]: 5.43 G/DL | URIC ACID [1]: 0.8 mg/dL | ABSOLUTE BASOPHIL [2]: 0 CELLS/uL | ABSOLUTE EOSINOPHIL [2]: 20.67 CELLS/uL | ABSOLUTE LYMPHOCYTE [2]: 11518.33 CELLS/uL | ABSOLUTE MONOCYTE [2]: 47 CELLS/uL | ABSOLUTE SEGMENTED NEUTROPHIL [2]: 614 CELLS/uL | BASOPHIL [2]: 0% | EOSINOPHIL [2]: 0.17% | ERYTHROCYTE COUNT [2]: 5.61 x10E6/uL | HEMATOCRIT [2]: 34.25% | HEMOGLOBIN [2]: 13.38 G/DL | LEUKOCYTE COUNT [2]: 12.2 x10E3/uL | LYMPHOCYTE [2]: 94.33% | MEAN CORPUSCULAR HEMOGLOBIN [2]: 23.83 pg | MEAN CORPUSCULAR HEMOGLOBIN CONCENTRATION [2]: 39.08 G/DL | MEAN CORPUSCULAR VOLUME [2]: 61.03 fL | MONOCYTE [2]: 0.33% | NEUTROPHIL [2]: 5.17% | NUCLEATED RED BLOOD CELLS [2]: 0 /100WBC | PLATELET COUNT [2]: 941.83 x10E3/uL | ALANINE AMINOTRANSFERASE [2]: 68.83 u/L | ALBUMIN [2]: 4.12 G/DL | ALKALINE PHOSPHATASE [2]: 492.67 u/L | ASPARTATE AMINOTRANSFERASE [2]: 83.33 u/L | BLOOD UREA NITROGEN [2]: 14 mg/dL | CARBON DIOXIDE [2]: 37 mmol/L | CHLORIDE [2]: 98.67 MEQ/L | CHOLESTEROL [2]: 56.5 mg/dL | CREATINE PHOSPHOKINASE [2]: 167.33 u/L | CREATININE [2]: 0.17 mg/dL | GLUCOSE [2]: 157.5 mg/dL | LACTATE DEHYDROGENASE [2]: 104.83 u/L | LIPASE [2]: 10 u/L | PHOSPHORUS [2]: 10.43 mg/dL | POTASSIUM [2]: 5.46 MEQ/L | SODIUM [2]: 143.87 MEQ/L | TOTAL BILIRUBIN [2]: 0.17 mg/dL | TOTAL PROTEIN [2]: 5.72 G/DL | URIC ACID [2]: 0.85 mg/dL | ABSOLUTE BASOPHIL [3]: 0 CELLS/uL | ABSOLUTE EOSINOPHIL [3]: 39.67 CELLS/uL | ABSOLUTE LYMPHOCYTE [3]: 11912.33 CELLS/uL | ABSOLUTE MONOCYTE [3]: 73.33 CELLS/uL | ABSOLUTE SEGMENTED NEUTROPHIL [3]: 641.33 CELLS/uL | BASOPHIL [3]: 0% | EOSINOPHIL [3]: 0.33% | ERYTHROCYTE COUNT [3]: 5.7 x10E6/uL | HEMATOCRIT [3]: 35.6% | HEMOGLOBIN [3]: 13.77 G/DL | LEUKOCYTE COUNT [3]: 12.67 x10E3/uL | LYMPHOCYTE [3]: 93.67% | MEAN CORPUSCULAR HEMOGLOBIN [3]: 24.13 pg | MEAN CORPUSCULAR HEMOGLOBIN CONCENTRATION [3]: 38.7 G/DL | MEAN CORPUSCULAR VOLUME [3]: 62.33 fL | MONOCYTE [3]: 0.67% | NEUTROPHIL [3]: 5.33% | NUCLEATED RED BLOOD CELLS [3]: 0 /100WBC | PLATELET COUNT [3]: 661.33 x10E3/uL | ALANINE AMINOTRANSFERASE [3]: 72.67 u/L | ALBUMIN [3]: 3.77 G/DL | ALKALINE PHOSPHATASE [3]: 495.33 u/L | ASPARTATE AMINOTRANSFERASE [3]: 95.67 u/L | BLOOD UREA NITROGEN [3]: 12 mg/dL | CARBON DIOXIDE [3]: 25.67 mmol/L | CHLORIDE [3]: 96.33 MEQ/L | CHOLESTEROL [3]: 70.67 mg/dL | CREATINE PHOSPHOKINASE [3]: 398.33 u/L | CREATININE [3]: 0.17 mg/dL | GLUCOSE [3]: 146.67 mg/dL | LACTATE DEHYDROGENASE [3]: 188.67 u/L | LIPASE [3]: 11 u/L | PHOSPHORUS [3]: 10.1 mg/dL | POTASSIUM [3]: 5.78 MEQ/L | SODIUM [3]: 137.9 MEQ/L | TOTAL BILIRUBIN [3]: 0.13 mg/dL | TOTAL PROTEIN [3]: 5.57 G/DL
